{"source": "patent US20240374763A1", "about": "“DIAGNOSIS AND MONITORING USING EXTRADOMAIN-B FIBRONECTIN TARGETED PROBES” (Case Western Reserve University, priority 2020, published 2024)", "format_in_all_cases": "in vivo, mice", "key": {"[1]": {"system": "PANC-1-GFP-Luc intrapancreatic tumor xenografts", "assay": "MRMI of PANC-1-GFP-Luc intrapancreatic tumor xenografts", "protocol": "For flank xenograft models, 4×10^6 Capan-1 cells suspended in 100 μL of a 6 mg/mL Matrigel (Corning, Corning, NY) solution was injected subcutaneously into the flank of eight-week-old female nu/nu mice. The tumor bearing mice were imaged after tumor volumes exceeded 300 mm^3. For orthotopic intrapancreatic models, the pancreas of four-week-old female nu/nu mice were surgically exposed and 1×10^6 BxPC3-GFP-Luc or PANC-1-GFP-Luc cells suspended in 100 μL of an Matrigel solution (6 mg/mL) was injected into the pancreatic tissue. Prior to imaging, growth of tumor was verified by bioluminescence imaging with intraperitoneal injection of d-luciferin on IVIS Spectrum system (Perkin Elmer, Waltham, MA).\nMice bearing intrapancreatic tumors were anesthetized and a tail vein catheter was inserted. Image acquisition was performed on a MR Solutions 3T MRS 3000 scanner with a mouse radiofrequency coil. Axial images were obtained using a Fast Spin Echo (FSE) MRI sequence (305 ms TR, 11 ms TE, 90° F.A, 4 cm×4 cm FOV, 1 mm slice thickness, 10 slices, echo train length=4, echo spacing=11 ms, 4 averages, 256×256 matrix, […] cm/pixel resolution) with respiratory gating. Images were acquired before contrast and at different time points after contrast injection at a dose of 0.1 mmol/kg (100 μL). For competitive binding experiments, a 5:1 molar ratio of free ZD2 peptide to MT218 was injected in mice bearing intrapancreatic BxPC3 tumor xenografts (n=3) at a dose of 0.1 mmol MT218/kg (100 μL). Images obtained on the MR Solutions 3T scanner were normalized using the Surscalereader.exe (MR Solutions, Guildford, UK) program supplied.\nImage files were exported and analyzed in Horus software. ROIs were drawn in the tumor, liver, kidney, and muscle. […] The contrast-to-noise ratio of the tumor (CNR) was calculated using the following equation, where σ_noise is the standard deviation of intensities from an ROI drawn outside of the mouse body: […]"}, "CAL27 tumors": {"system": "CAL27 tumors", "assay": "MRMI of OSCC flank xenografts, CAL27", "conditions": "MT218 0.04 mmol/kg", "protocol": "(§1) Animal experiments were performed under an animal protocol approved by the Institutional Animal Care and Use Committee (IACUC) at Case Western Reserve University (CWRU, Cleveland, OH, USA). Female 4-week-old athymic nude mice purchased from the Jackson Laboratory (Bar Harbor, ME, USA) were housed in the Animal Core Facility at CWRU. Anesthetized mice were subcutaneously inoculated in the right flank with 4×10^6 GFP/luciferase-expressing OSCC cells (n=5 per cell line) in 100 μL of a 1:1 mixture of Matrigel HC (Corning) and DPBS. Tumor size was monitored with caliper measurements. After 4 weeks of growth, tumors were sufficiently large for MRI experiments.\nMRI experiments were performed with a 3T MRS-3000 system (MR Solutions, Surrey, UK). Tumor-bearing mice were imaged before and at 10, 20, and 30 minutes post-injection of the targeted contrast agent, MT218 (Molecular Theranostics, LLC, Cleveland, OH, USA), at a dose of 0.04 mmol/kg using a T1-weighted fast spin-echo axial sequence with respiratory gating (TR=305 ms, TE=11 ms, FOV=40×40 mm, slice thickness=1 mm, number of slices=15, Nav=2, matrix=256×248). […]\n(§2) Images were exported in DICOM format and analyzed using FIJI. Contrast-to-noise ratio (CNR) for each time point was calculated as the difference between the mean tumor intensity and the mean muscle intensity, divided by the standard deviation of noise."}, "HSC3 tumors": {"system": "HSC3 tumors", "assay": "MRMI of OSCC flank xenografts, HSC3", "conditions": "MT218 0.04 mmol/kg", "protocol": "as §1\nMRI experiments were performed with a 3T MRS-3000 system (MR Solutions, Surrey, UK). Tumor-bearing mice were imaged before and at 10, 20, […] spin-echo axial sequence with respiratory gating (TR=305 ms, TE=11 ms, FOV=40×40 mm, slice thickness=1 mm, number of slices=15, Nav=2, matrix=256×248). This protocol was repeated on the same mice 2 days later using the untargeted clinical agent gadoteridol at the clinical dose of 0.10 mmol/kg.\nas §2"}, "LNCaP tumors": {"system": "LNCaP tumors", "assay": "MRMI with MT218, LNCaP xenografts", "conditions": "0.04 mmol Gd/kg, 20 min post-injection", "excerpt": "Xenograft models were established by subcutaneous flank injections in athymic nu/nu mice for the 4 prostate cancer cells and tested with MRMI using 0.04 mmol Gd/kg of MT218."}}, "note": "No end group written: not given here."}
{"substance": "ZD2-N3-Gd(HP-DO3A) (TVRTSAD; also: conjugated to Gd(HP-DO3A) by click reaction of alkynyl-ZD2 with N3-Gd(HP-DO3A), residue of attachment not given here, Gd complex) [MT218, EDB-FN-targeted MRI contrast agent; ZD2 peptide conjugated to the clinical macrocyclic agent Gd(HP-DO3A)]", "values": [{"measurement": "intratumoral CNR increase", "setting": "[1]; 0.1 mmol/kg, 10 min postinjection", "value": "approximately 3.85 fold"}, {"measurement": "CNR compared to the clinical agent Gd(HP-DO3A)", "setting": "[1]; PANC-1-GFP-Luc intrapancreatic", "value": "164 % CNR of control"}, {"measurement": "average maximum enhancement (CNR)", "setting": "CAL27 tumors", "value": "1.80±0.17"}, {"measurement": "average maximum enhancement (CNR)", "setting": "HSC3 tumors", "value": "2.61±0.17"}, {"measurement": "increase in CNR", "setting": "LNCaP tumors", "value": "negligible"}]}
